The target of assay [1] is T1, Comamonas testosteroni 3α-HSDH mutant [P185A], N-terminal hexahistidine tag (Comamonas testosteroni, UniProt P80702, P185A).
T1 sequence (P80702 1-257 P185A): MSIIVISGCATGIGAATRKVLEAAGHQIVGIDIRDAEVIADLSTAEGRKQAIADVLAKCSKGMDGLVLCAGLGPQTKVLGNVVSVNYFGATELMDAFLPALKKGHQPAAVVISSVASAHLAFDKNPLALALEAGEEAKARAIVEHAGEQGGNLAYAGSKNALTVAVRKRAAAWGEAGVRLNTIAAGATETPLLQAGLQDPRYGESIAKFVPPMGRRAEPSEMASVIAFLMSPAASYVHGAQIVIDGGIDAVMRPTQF
As to the kind of experiment: Kinetics of 3α-HSDH [P185A], N-terminal His tag.

Assay [2] has as its target T2, Comamonas testosteroni 3α-HSDH mutant [T188G], N-terminal hexahistidine tag (Comamonas testosteroni, UniProt P80702, T188G).
T2 sequence (P80702 1-257 T188G): T1 sequence (P80702 1-257 P185A) with A185P, T188G
The experiment in a line: Kinetics of 3α-HSDH [T188G], N-terminal His tag. It is filed as biochemical. As to conditions: DHCA. As for the experimental part:
The activity of the 3α-HSDH and of the mutants was determined using a photometric assay, where the decrease in absorbance was measured at 340 nm over a period of 30 seconds.
The targeted exchange of amino acid radicals was performed analogously to Example 2B.
Following cultivation and expression, the cells were harvested, and the specific activities of the cell-free crude extracts were determined at substrate concentrations of 10 mM DHCA. The enzyme variants where the activity measurements with crude extract enzyme were most promising were purified by means of Ni-NTA chromatography, and their kinetic constants were determined by measurements with different DHCA concentrations of between 10 μM and 20 mM. In addition, an expression check by means of SDS PAGE was carried out for all mutants.

In assay [3] the target is T3, Comamonas testosteroni 3α-HSDH mutant [T188S], N-terminal hexahistidine tag (Comamonas testosteroni, UniProt P80702, T188S).
T3 sequence (P80702 1-257 T188S): T1 sequence (P80702 1-257 P185A) with A185P, T188S
As to the kind of experiment: Kinetics of 3α-HSDH [T188S], N-terminal His tag.

In assay [4] the target is T4, Comamonas testosteroni 3α-HSDH mutant [L68A], N-terminal hexahistidine tag (Comamonas testosteroni, UniProt P80702, L68A).
T4 sequence (P80702 1-257 L68A): T1 sequence (P80702 1-257 P185A) with L68A, A185P
Experimental: After cultivation and expression, the proteins were purified by means of Ni-NTA chromatography, the specific activities were determined and their kinetic constants were determined.

In assay [5] the target is T5, Comamonas testosteroni 3α-HSDH, wild type, without His tag, SEQ ID NO:4 (Comamonas testosteroni, UniProt P80702).
T5 sequence (P80702 1-257): T1 sequence (P80702 1-257 P185A) with A185P
The experiment in a line: Michaelis-Menten kinetics of wild-type 3α-HSDH without His tag.

Assay [6] deals with T6, Comamonas testosteroni 3α-HSDH dual mutant [L68A/T188A], N-terminal hexahistidine tag (Comamonas testosteroni, UniProt P80702, L68A/T188A).
T6 sequence (P80702 1-257 L68A/T188A): T1 sequence (P80702 1-257 P185A) with L68A, A185P, T188A

[7] abbreviates: Table 14, substrate DHCA, tag N, apparent values.
Setting [8] is: Table 14, substrate DHCA, tag N, NADH 0.2 mM, apparent values.

Structures are written as SMILES. Changes are numbered by the printed parent chain. Bounds are passed on as bounds.

A word on the kcat: it is the maximal rate divided by the concentration of active sites. Consider `C[C@H](CCC(=O)O)[C@H]1CC[C@H]2[C@@H]3C(=O)C[C@@H]4CC(=O)CC[C@]4(C)[C@H]3CC(=O)[C@]12C` [DHCA, dehydrocholic acid], for which the kcat in assay [1] (setting [7]) came out at 48.5 s⁻¹; in assay [3] (setting [7]), 158.2 s⁻¹; in assay [4] (setting [8]) it was 138.0 s⁻¹; in assay [6] (setting [7]) it was 111.1 s⁻¹. Further, the vmax is reported as 102.8 ± 5.7 U/mg in assay [1] (setting [7]); 332.5 ± 59.9 U/mg in assay [3] (setting [7]); 290.0 ± 45.4 U/mg in assay [4] (setting [8]); 134 ± 3.8 U/mg in assay [5] (Table 14, substrate DHCA, no tag, apparent values); 233.5 ± 12.5 U/mg in assay [6] (setting [7]). The remaining activity at 10000 µM is 5% in assay [1] (read-out: residual activity), around 8% in assay [4] (read-out: residual activity) and above 20% in assay [6] (read-out: residual activity). For the same compound, in assay [2], the substrate excess inhibition entry is “No pronounced substrate excess inhibition”. Further, the remaining activity at 20000 µM in assay [3] (read-out: residual activity) is above 20%. Further, the figures for the remaining activity at 1000 µM in assay [4] (read-out: residual activity) and in assay [6] (read-out: residual activity) were around 15% and 85%, respectively. The residual activity in assay [5] (after increasing DHCA further above approximately 1 mM, substrate excess inhibition) is on record as 10-20%.

Source of the values: patent US10487348B2, “3-alpha-hydroxysteroid dehydrogenase mutants and process for the preparation of ursodeoxycholic acid” (Pharmazell GmbH, priority 2014, dated 2019).
